Patent US20230167073A1 (Teijin Pharma Limited, priority 2020, published 2023)

target: T1, Human TRPC6 (Homo sapiens, UniProt Q9Y210); test: Evaluation of TRPC6 channel inhibitory activity (1), FLIPR Calcium 5 Assay Kit, OAG stimulation (Compound Nos. 1-1293); assay type: cell-based; conditions: not given
T1 construct: expressed in transfected cells
T1 sequence (Q9Y210 1-931): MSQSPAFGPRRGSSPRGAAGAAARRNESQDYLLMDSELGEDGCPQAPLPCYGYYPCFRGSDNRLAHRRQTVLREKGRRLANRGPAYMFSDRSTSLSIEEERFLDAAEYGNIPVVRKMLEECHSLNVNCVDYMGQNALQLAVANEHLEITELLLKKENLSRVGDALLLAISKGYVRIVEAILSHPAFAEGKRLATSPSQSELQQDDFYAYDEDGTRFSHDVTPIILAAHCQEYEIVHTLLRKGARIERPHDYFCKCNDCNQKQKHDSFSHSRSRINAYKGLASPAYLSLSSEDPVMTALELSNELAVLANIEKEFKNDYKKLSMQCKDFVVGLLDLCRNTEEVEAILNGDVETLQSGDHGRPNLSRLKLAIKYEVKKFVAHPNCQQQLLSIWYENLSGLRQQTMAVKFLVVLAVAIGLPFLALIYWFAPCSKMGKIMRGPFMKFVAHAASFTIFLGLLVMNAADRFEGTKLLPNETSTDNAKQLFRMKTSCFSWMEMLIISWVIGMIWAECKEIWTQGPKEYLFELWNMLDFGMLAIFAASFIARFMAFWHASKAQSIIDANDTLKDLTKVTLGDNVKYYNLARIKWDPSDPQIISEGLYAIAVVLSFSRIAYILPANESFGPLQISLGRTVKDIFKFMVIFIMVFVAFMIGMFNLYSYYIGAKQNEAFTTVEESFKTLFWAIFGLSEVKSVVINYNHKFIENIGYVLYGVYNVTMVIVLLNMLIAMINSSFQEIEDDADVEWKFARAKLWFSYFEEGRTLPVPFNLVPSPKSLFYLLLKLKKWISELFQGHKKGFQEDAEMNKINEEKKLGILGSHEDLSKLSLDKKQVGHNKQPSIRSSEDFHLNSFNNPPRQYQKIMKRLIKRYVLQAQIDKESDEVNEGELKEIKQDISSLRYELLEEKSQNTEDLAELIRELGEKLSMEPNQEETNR
Procedure, shortened: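 Stable human TRPC6 line; fluorescent Ca2+ dye loading, then 20 min compound exposure before 30 μM OAG trigger. Peak-minus-baseline signal converted to % inhibition against untreated and unstimulated wells; potency given as pIC50 band.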

Cc1cc(Oc2cc(C#N)ccc2-c2ncc(CCN)cn2)cc(N2C3CCC2COC3)n1 [compound 445, 4-[5-(2-aminoethyl)pyrimidin-2-yl]-3-[2-methyl-6-(3-oxa-8-azabicyclo[3.2.1]octan-8-yl)pyridin-4-yl]oxybenzonitrile] and Cc1cc(Oc2cc(C#N)ccc2-c2ccc([C@H](O)CN)cn2)cc(N2C3CCC2COC3)n1 [compound 446, 4-[5-[(1S)-2-amino-1-hydroxyethyl]pyridin-2-yl]-3-[2-methyl-6-(3-oxa-8-azabicyclo[3.2.1]octan-8-yl)pyridin-4-yl]oxybenzonitrile] cannot be ordered by IC50: < 10 nM for the first, < 10 nM for the second.

same assay, conditions: Human TRPC6 stably-expressing cells, OAG 30 μM, FLIPR Calcium 5 Assay Kit; read-out: Inhibitory activity (pIC50 class) (converted)

Cn1nc(C2CCOCC2)cc1Oc1cc(C#N)ccc1-c1ccc([C@H](O)CN)cn1 [compound 442, 4-[5-[(1S)-2-amino-1-hydroxyethyl]pyridin-2-yl]-3-[2-methyl-5-(oxan-4-yl)pyrazol-3-yl]oxybenzonitrile] and Cn1nc(C2CC2)cc1Oc1cc(C#N)ccc1-c1cc(CN)ccn1 [compound 443, 4-[4-(aminomethyl)pyridin-2-yl]-3-(5-cyclopropyl-2-methylpyrazol-3-yl)oxybenzonitrile] fall in the same range of IC50: 10 to 1000 nM for the first, 10 to 1000 nM for the second.

Cc1cc(Oc2cc(C#N)ccc2-c2ncc(CCN)cn2)cc(N2CCO[C@@H](C(F)F)C2)n1 [compound 444, 4-[5-(2-aminoethyl)pyrimidin-2-yl]-3-[2-[(2R)-2-(difluoromethyl)morpholin-4-yl]-6-methylpyridin-4-yl]oxybenzonitrile] and Cc1cc(Oc2cc(C#N)ccc2-c2ncc(CCN)cn2)cc(N2CC3CCC(C2)O3)n1 [compound 454, 4-[5-(2-aminoethyl)pyrimidin-2-yl]-3-[2-methyl-6-(8-oxa-3-azabicyclo[3.2.1]octan-3-yl)pyridin-4-yl]oxybenzonitrile] cannot be ordered by IC50: < 10 nM for the first, < 10 nM for the second.

Cc1nc(Oc2cc(C#N)ccc2-c2ncc(CCN)cn2)cc(N2CCCCC2)n1 [compound 447, 4-[5-(2-aminoethyl)pyrimidin-2-yl]-3-(2-methyl-6-piperidin-1-ylpyrimidin-4-yl)oxybenzonitrile] and Cc1nc(Oc2cc(C#N)ccc2-c2ncc(CCN)cn2)cc(N2CCCC2)n1 [compound 448, 4-[5-(2-aminoethyl)pyrimidin-2-yl]-3-(2-methyl-6-pyrrolidin-1-ylpyrimidin-4-yl)oxybenzonitrile] cannot be ordered by IC50: < 10 nM for the first, < 10 nM for the second.

Cc1nc(Oc2cc(C#N)ccc2-n2cc(CC(N)C(=O)O)c3ccccc32)cc(-c2ccccc2)n1 (stereo not shown) [compound 449, 2-amino-3-[1-[4-cyano-2-(2-methyl-6-phenylpyrimidin-4-yl)oxyphenyl]indol-3-yl]propanoic acid] and CCc1cc(Oc2cc(C#N)ccc2-n2cc(CC(N)C(=O)O)c3ccccc32)n(C)n1 (stereo not shown) [compound 460, 2-amino-3-[1-[4-cyano-2-(5-ethyl-2-methylpyrazol-3-yl)oxyphenyl]indol-3-yl]propanoic acid] cannot be ordered by IC50: > 1000 nM for the first, > 1000 nM for the second.

Cn1nc(C2CC2)cc1Oc1cc(C#N)ccc1-c1cc(N)ccn1 [compound 450, 4-(4-aminopyridin-2-yl)-3-(5-cyclopropyl-2-methylpyrazol-3-yl)oxybenzonitrile] and Cn1nc(C2CC2)cc1Oc1cc(C#N)ccc1-c1cccc(N)n1 [compound 451, 4-(6-aminopyridin-2-yl)-3-(5-cyclopropyl-2-methylpyrazol-3-yl)oxybenzonitrile] cannot be ordered by IC50: > 1000 nM for the first, > 1000 nM for the second.

Cn1nc(C2CC2)cc1Oc1cc(C#N)ccc1-c1ccc2ccnc(N)c2c1 [compound 452, 4-(1-aminoisoquinolin-7-yl)-3-(5-cyclopropyl-2-methylpyrazol-3-yl)oxybenzonitrile] and Cn1nc(C2CC2)cc1Oc1cc(C#N)ccc1-c1cccc2c(N)nccc12 [compound 453, 4-(1-aminoisoquinolin-5-yl)-3-(5-cyclopropyl-2-methylpyrazol-3-yl)oxybenzonitrile] cannot be ordered by IC50: > 1000 nM for the first, > 1000 nM for the second.

Cc1cc(Oc2cc(C#N)ccc2-c2ncc(CCN)cn2)cc(N2CCNC(=O)C2)n1 [compound 455, 4-[5-(2-aminoethyl)pyrimidin-2-yl]-3-[2-methyl-6-(3-oxopiperazin-1-yl)pyridin-4-yl]oxybenzonitrile] and Cc1cc(Oc2cc(C#N)ccc2-c2ncc(CCN)cn2)cc(N2CCN(C)C(=O)C2)n1 [compound 465, 4-[5-(2-aminoethyl)pyrimidin-2-yl]-3-[2-methyl-6-(4-methyl-3-oxopiperazin-1-yl)pyridin-4-yl]oxybenzonitrile] cannot be ordered by IC50: > 1000 nM for the first, > 1000 nM for the second.

Cc1cc(Oc2cc(C#N)ccc2-c2ccc(CCN)cn2)cc(N2CCNC(=O)C2)n1 [compound 456, 4-[5-(2-aminoethyl)pyridin-2-yl]-3-[2-methyl-6-(3-oxopiperazin-1-yl)pyridin-4-yl]oxybenzonitrile] and Cc1cc(Oc2cc(C#N)ccc2-c2ccc(CCN)cn2)cc(N2CCN(C)C(=O)C2)n1 [compound 464, 4-[5-(2-aminoethyl)pyridin-2-yl]-3-[2-methyl-6-(4-methyl-3-oxopiperazin-1-yl)pyridin-4-yl]oxybenzonitrile] cannot be ordered by IC50: > 1000 nM for the first, > 1000 nM for the second.

Compared with Cn1nc(-c2ccccc2)cc1Oc1cc(C#N)ccc1-c1ccc2c(CN)noc2c1 [compound 457, 4-[3-(aminomethyl)-1,2-benzoxazol-6-yl]-3-(2-methyl-5-phenylpyrazol-3-yl)oxybenzonitrile], Cn1nc(-c2ccccc2)cc1Oc1cc(C#N)ccc1-c1ccc(C(N)CO)cn1 (stereo not shown) [compound 469, 4-[5-(1-amino-2-hydroxyethyl)pyridin-2-yl]-3-(2-methyl-5-phenylpyrazol-3-yl)oxybenzonitrile] is lower in IC50: > 1000 nM for the first, < 10 nM for the second.

COCCN(C)c1cc(Oc2cc(C#N)ccc2-c2ncc(CCN)cn2)cc(C)n1 [compound 458, 4-[5-(2-aminoethyl)pyrimidin-2-yl]-3-[2-[2-methoxyethyl(methyl)amino]-6-methylpyridin-4-yl]oxybenzonitrile] and COCCN(C)c1cc(Oc2cc(C#N)ccc2-c2ccc(CCN)cn2)cc(C)n1 [compound 459, 4-[5-(2-aminoethyl)pyridin-2-yl]-3-[2-[2-methoxyethyl(methyl)amino]-6-methylpyridin-4-yl]oxybenzonitrile] cannot be ordered by IC50: < 10 nM for the first, < 10 nM for the second.

Compared with Cc1cc(Oc2cc(C#N)ccc2-c2ncc(CCN)cn2)cc(NC(C)C)n1 [compound 461, 4-[5-(2-aminoethyl)pyrimidin-2-yl]-3-[2-methyl-6-(propan-2-ylamino)pyridin-4-yl]oxybenzonitrile], Cc1ccc(-c2cc(Oc3cc(C#N)ccc3-c3ncc(CCN)cn3)cc(C)n2)nn1 [compound 466, 4-[5-(2-aminoethyl)pyrimidin-2-yl]-3-[2-methyl-6-(6-methylpyridazin-3-yl)pyridin-4-yl]oxybenzonitrile] is higher in IC50: < 10 nM for the first, > 1000 nM for the second.

First: Cc1cc(Oc2cc(C#N)ccc2-c2ncc(C3(N)CC3)cn2)cc(N2CCOCC2)n1 [compound 462, 4-[5-(1-aminocyclopropyl)pyrimidin-2-yl]-3-(2-methyl-6-morpholin-4-ylpyridin-4-yl)oxybenzonitrile]
Second: Cc1nc(Oc2cc(C#N)ccc2-c2ncc(CN)cn2)cc(N2CCOCC2)n1 [compound 467, 4-[5-(aminomethyl)pyrimidin-2-yl]-3-(2-methyl-6-morpholin-4-ylpyrimidin-4-yl)oxybenzonitrile]
The IC50 of the first is higher: > 1000 nM for the first, < 10 nM for the second.

Cn1nc(C2CC2)cc1Oc1cc(C#N)ccc1-c1ncc(C2(N)CC2)cn1 [compound 463, 4-[5-(1-aminocyclopropyl)pyrimidin-2-yl]-3-(5-cyclopropyl-2-methylpyrazol-3-yl)oxybenzonitrile] and Cn1nc(C2CC2)cc1Oc1cc(C#N)ccc1-c1cc(N)nc2ccnn12 [compound 468, 4-(5-aminopyrazolo[1,5-a]pyrimidin-7-yl)-3-(5-cyclopropyl-2-methylpyrazol-3-yl)oxybenzonitrile] cannot be ordered by IC50: > 1000 nM for the first, > 1000 nM for the second.

Cc1cc(Oc2cc(C#N)ccc2-c2ncc(CCN)cn2)cc(N2CCOC[C@H]2C)n1 [compound 470, 4-[5-(2-aminoethyl)pyrimidin-2-yl]-3-[2-methyl-6-[(3R)-3-methylmorpholin-4-yl]pyridin-4-yl]oxybenzonitrile] and Cc1cc(Oc2cc(C#N)ccc2-c2ncc(CCN)cn2)cc(N2CCOC[C@@H]2C)n1 [compound 471, 4-[5-(2-aminoethyl)pyrimidin-2-yl]-3-[2-methyl-6-[(3S)-3-methylmorpholin-4-yl]pyridin-4-yl]oxybenzonitrile] cannot be ordered by IC50: < 10 nM for the first, < 10 nM for the second.

Cc1nc(Oc2cc(C#N)ccc2-c2ncc(CN)cn2)cc(-c2ccccn2)n1 [compound 472, 4-[5-(aminomethyl)pyrimidin-2-yl]-3-(2-methyl-6-pyridin-2-ylpyrimidin-4-yl)oxybenzonitrile] showed an IC50 of 10 to 1000 nM.
